Measurements: patent publication US11040035B2, “3-oxo-2,6-diphenyl-2,3-dihydropyridazine-4-carboxamides” (BAYER PHARMA AKTIENGESELLSCHAFT, priority 2016, dated 2021)
Read-outs that look alike come from different tables or passages of the source.

Assays:
AHR [1] = target: T1, AHR (Homo sapiens, UniProt P35869); test: In vitro assay 2: agonism in human cell line (transactivation assay)
T1 sequence (P35869 11-848): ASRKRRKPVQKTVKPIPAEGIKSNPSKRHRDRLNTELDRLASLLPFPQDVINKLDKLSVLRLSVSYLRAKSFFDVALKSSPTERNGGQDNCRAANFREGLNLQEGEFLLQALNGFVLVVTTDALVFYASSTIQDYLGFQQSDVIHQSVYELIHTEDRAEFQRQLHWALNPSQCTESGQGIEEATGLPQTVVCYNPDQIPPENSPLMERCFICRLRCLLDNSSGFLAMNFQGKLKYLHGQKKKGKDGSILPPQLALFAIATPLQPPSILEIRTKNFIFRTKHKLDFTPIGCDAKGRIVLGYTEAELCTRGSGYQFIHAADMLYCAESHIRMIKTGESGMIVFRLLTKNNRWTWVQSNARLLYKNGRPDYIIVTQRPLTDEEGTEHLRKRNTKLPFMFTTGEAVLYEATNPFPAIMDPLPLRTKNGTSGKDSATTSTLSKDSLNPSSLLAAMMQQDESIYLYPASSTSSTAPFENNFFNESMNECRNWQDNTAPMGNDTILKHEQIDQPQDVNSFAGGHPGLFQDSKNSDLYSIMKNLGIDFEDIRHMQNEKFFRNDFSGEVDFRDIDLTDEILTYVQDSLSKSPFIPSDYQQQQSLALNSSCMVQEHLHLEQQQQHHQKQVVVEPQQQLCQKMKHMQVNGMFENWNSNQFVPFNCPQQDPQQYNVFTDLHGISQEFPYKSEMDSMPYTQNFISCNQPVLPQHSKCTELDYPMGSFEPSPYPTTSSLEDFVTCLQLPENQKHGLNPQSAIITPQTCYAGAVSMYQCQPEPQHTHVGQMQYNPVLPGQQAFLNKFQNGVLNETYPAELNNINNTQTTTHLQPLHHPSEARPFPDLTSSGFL

[2] = test system: AHR-regulated gene CYP1A1; test: In vitro assay 3: AHR-regulated CYP1A1 expression in human cell line (U937, qPCR)
Method: In Vitro Assay 3: AHR-Regulated CYP1A1 Expression in Human Cell Line
To assess the AHR inhibitory activity of the substances described in this application, the ability thereof to antagonise ligand-induced AHR gene regulation in a dose-dependent manner was quantified. For this purpose, quantitative PCR analysis was used to determine expression of the AHR-regulated gene CYP1A1 in a human monocytic U937 cell line upon stimulation with 200 μM KA in the presence and absence of AHR inhibitor. U937 cells were sown at a concentration of 2×10^5 cells/well in 100 ul of growth medium (RPMI 1640, 20% FCS) in 96-well microtitre plates. CYP1A1 expression was induced with 200 μM KA (positive control) in the presence or absence of the substances for 6 hours. Human U937 cells were typically incubated with eight different concentrations of the substances (1 nM, 3 nM, 10 nM, 30 nM, 100 nM, 300 nM, 1 μM and 3 μM) and analyzed in duplicate on the same microtitre plate. After stimulation, cells were lysed with Nucleic Acid Lysis Solution (#4305895, Applied Biosystems) and RNA was isolated using the 6100 Nucleic Acid Preparation Station (Applied Biosystems) and reverse-transcribed to cDNA using SuperScript VILO cDNA synthesis kit (#11754-250, Invitrogen). Unstimulated cells were used as the negative control. Taqman probes for human CYP1A1 (Hs01054797_g1) and human HPRT (Hs02800695_m1) were used to analyze fold expression of CYP1A1 of HPRT. Quantitation was performed on a Taqman SDS7900HT.

AHR [3] = target: T1, AHR; test: In vitro assay 1: antagonism in human cell line (transactivation assay, kynurenic acid prestimulated); settings: Assay 1: AHR-luc Hum Antagonism IC50 [M], 150 μM kynurenic acid, 20 hours, firefly luciferase
Method: Transactivation assays were carried out in U87 glioblastoma cells (ATCC) endogenously expressing AHR. In addition the cells were stably transfected with an AHR inducible firefly luciferase reporter gene construct that carried AHR-binding sites (DRE) in its promoter and a renilla reporter gene construct with constitutively active promoter. Kynurenic acid is an endogenous AHR activating ligand and was used to prestimulate test cells prior to testing the antagonistic properties of compounds.
In Vitro Assay 1: Antagonism in Human Cell Line
Cells in medium (tryptophan free RPMI, 1% FCS, 2 mM Glutamine) supplemented with 150 μM kynurenic acid were grown for 20 hours in absence (negative control) or presence of increasing concentrations of test compounds (typical dilutions: 72 pmol/L, 0.25 nmol/L, 0.89 nmol/L; 3.1 nmol/L, 11 nmol/L, 38 nmol/L, 130 nmol/L, 470 nmol/L, 1.6 μmol/L, 5.7 μmol/L and 20 μmol/L in duplicates). As positive inhibition control cells supplemented with 150 μM kynurenic acid were incubated in presence of 5 μM Staurosporin. Normalization was done by positive and negative controls.
Firefly luciferase and Renilla activity was determined by the DualGlo Luciferase Assay System (Promega, #2920).

[4] = Assay 2: AHR-luc Hum Agonism IC50 [M], no kynurenic acid, 20 hours, firefly luciferase
[5] = Homo sapiens, U-937, 6 h, read-out: Assay 3: Hum CYP1A1 Antagonism IC50 [M], U937 cells, 200 μM KA, 6 hours, qPCR
[6] = read-out: Assay 3: Hum CYP1A1 Antagonism IC50, U937 cells, 200 μM KA, 6 hours, qPCR
[7] = read-out: Assay 2: AHR-luc Hum Agonism IC50, no kynurenic acid, 20 hours, firefly luciferase

SMILES | IC50 (AHR [1]; [4]) [M] | IC50 [2, 5] [M] | IC50 (AHR [3]) [M] | IC50 [2, 6] [M] | IC50 (AHR [1]; [7]) [M]
O=C(N[C@H](CO)C(F)(F)F)c1cc(-c2ccc(C(F)F)cc2)nn(-c2cccc(F)c2)c1=O [Example 296, 6-[4-(Difluoromethyl)phenyl]-2-(3-fluorophenyl)-3-oxo-N-[(2R)-1,1,1-trifluoro-3-hydroxypropan-2-yl]-2,3-dihydropyridazine-4-carboxamide] | > 2e-05 | 6.22e-09 | 3.66e-09 | – | –
O=C(NCC(O)C(F)(F)F)c1cc(-c2ccc(OC(F)(F)F)cc2)nn(-c2cccc(F)c2)c1=O (single isomer, unassigned) [Example 183, 2-(3-Fluorophenyl)-3-oxo-N-(3,3,3-trifluoro-2-hydroxypropyl)-6-[4-(trifluoromethoxy)phenyl]-2,3-dihydropyridazine-4-carboxamide] | > 2e-05 | – | 3.78e-08 | 4.14e-08 | –
CC(O)C(NC(=O)c1cc(-c2ccc(Cl)cc2)nn(-c2cccc(F)c2)c1=O)C(F)(F)F (mixture of isomers) [Example 197, 6-(4-Chlorophenyl)-2-(3-fluorophenyl)-3-oxo-N-[(2RS, 3RS)-1,1,1-trifluoro-3-hydroxybutan-2-yl]-2,3-dihydropyridazine-4-carboxamide and 6-(4-Chlorophenyl)-2-(3-fluorophenyl)-3-oxo-N-[(2RS, 3SR)-1,1,1-trifluoro-3-hydroxybutan-2-yl]-2,3-dihydropyridazine-4-carboxamide] | > 2e-05 | 1.82e-08 | 1.97e-08 | – | –
COC[C@H](CO)NC(=O)c1cc(-c2ccc(Cl)cc2)nn(-c2cccc(F)c2)c1=O [Example 229, 6-(4-Chlorophenyl)-2-(3-fluorophenyl)-N-[(2S)-1-hydroxy-3-methoxypropan-2-yl]-3-oxo-2,3-dihydropyridazine-4-carboxamide] | > 2e-05 | 2e-06 | 1.5e-07 | – | –
C[C@H](O)[C@H](C)NC(=O)c1cc(-c2ccc(Cl)cc2)nn(-c2cccc(F)c2)c1=O [Example 114, 6-(4-Chlorophenyl)-2-(3-fluorophenyl)-N-[(2S,3S)-3-hydroxybutan-2-yl]-3-oxo-2,3-dihydropyridazine-4-carboxamide] | > 2e-05 | 5.27e-08 | 2.3e-08 | – | –
Cc1ccc(-c2cc(C(=O)N[C@@H](C)CO)c(=O)n(-c3cc(F)cc(F)c3)n2)cc1 [Example 55, 2-(3,5-Difluorophenyl)-N-[(2S)-1-hydroxypropan-2-yl]-6-(4-methylphenyl)-3-oxo-2,3-dihydropyridazine-4-carboxamide] | > 2e-05 | 1.54e-08 | 1.8e-08 | – | –
Cc1ccc(-c2cc(C(=O)NCC(O)C(C)C)c(=O)n(-c3cc(F)cc(F)c3)n2)cc1 (single isomer, unassigned) [Example 57, 2-(3,5-Difluorophenyl)-N-(2-hydroxy-3-methylbutyl)-6-(4-methylphenyl)-3-oxo-2,3-dihydropyridazine-4-carboxamide] | > 2e-05 | – | 3.49e-08 | 3.83e-08 | –
O=C(NC(CO)C1CCOC1)c1cc(-c2ccc(OC(F)(F)F)cc2)nn(-c2cccc(F)c2)c1=O (single isomer, unassigned) [Example 178, 2-(3-Fluorophenyl)-N-[2-hydroxy-1-(tetrahydrofuran-3-yl)ethyl]-3-oxo-6-[4-(trifluoromethoxy)phenyl]-2,3-dihydropyridazine-4-carboxamide] | – | – | 1.27e-07 | 1.13e-07 | > 2e-05
CC(C)[C@@H](CO)NC(=O)c1cc(-c2ccc(Cl)cc2)nn(-c2cccc(C#N)c2)c1=O [Example 361, 6-(4-chlorophenyl)-2-(3-cyanophenyl)-N-[(2S)-1-hydroxy-3-methylbutan-2-yl]-3-oxo-2,3-dihydropyridazine-4-carboxamide] | > 2e-05 | 2.96e-07 | 1.66e-07 | – | –
O=C(NCC(O)C(F)F)c1cc(-c2ccc(C(F)(F)F)cc2)nn(-c2cccc(F)c2)c1=O (single isomer, unassigned; (+)) [Example 328, (+)-N-(3,3-difluoro-2-hydroxypropyl)-2-(3-fluorophenyl)-3-oxo-6-[4-(trifluoromethyl)phenyl]-2,3-dihydropyridazine-4-carboxamide] | – | – | 4.47e-08 | 9.53e-08 | > 2e-05
O=C(NC1(CO)CCC1)c1cc(-c2ccc(Cl)cc2)nn(-c2cccc(F)c2)c1=O [Example 213, 6-(4-Chlorophenyl)-2-(3-fluorophenyl)-N-[1-(hydroxymethyl)cyclobutyl]-3-oxo-2,3-dihydropyridazine-4-carboxamide] | > 2e-05 | 2.21e-07 | 8.72e-08 | – | –
Cc1ccc(-c2cc(C(=O)NCC(O)C(C)C)c(=O)n(-c3cccc(F)c3)n2)cc1 (single isomer, unassigned; enantiomer 1) [Example 11, 2-(3-Fluorophenyl)-N-(2-hydroxy-3-methylbutyl)-6-(4-methylphenyl)-3-oxo-2,3-dihydropyridazine-4-carboxamide, enantiomer 1] | > 2e-05 | 1.71e-07 | 7.94e-08 | – | –

Continued, values first:

IC50 (AHR [1]; [4]) [M] | IC50 [2, 5] [M] | IC50 (AHR [3]) [M] | IC50 [2, 6] [M] | IC50 (AHR [1]; [7]) [M] | SMILES
> 2e-05 | > 1e-06 | 9.73e-07 | – | – | Cc1cccc(-n2nc(-c3ccc(Cl)cc3)cc(C(=O)N[C@@H](C)CO)c2=O)c1 [Example 369, 6-(4-chlorophenyl)-N-[(2S)-1-hydroxypropan-2-yl]-2-(3-methylphenyl)-3-oxo-2,3-dihydropyridazine-4-carboxamide]
> 2e-05 | – | 6.77e-09 | 7.63e-09 | – | O=C(NCC(O)C(F)(F)F)c1cc(-c2ccc(C(F)F)cc2)nn(-c2cccc(F)c2)c1=O (single isomer, unassigned) [Example 95, 6-[4-(Difluoromethyl)phenyl]-2-(3-fluorophenyl)-3-oxo-N-(3,3,3-trifluoro-2-hydroxypropyl)-2,3-dihydropyridazine-4-carboxamide]
– | 6.98e-08 | 4.92e-08 | – | > 2e-05 | O=C(NC(CO)C1CCOC1)c1cc(-c2ccc(Cl)c(F)c2)nn(-c2cccc(F)c2)c1=O (single isomer, unassigned) [Example 293, 6-(4-Chloro-3-fluorophenyl)-2-(3-fluorophenyl)-N-[2-hydroxy-1-(tetrahydrofuran-3-yl)ethyl]-3-oxo-2,3-dihydropyridazine-4-carboxamide]
– | 2e-06 | 4.02e-08 | – | > 2e-05 | O=C(N[C@H]1CC[C@@H]1O)c1cc(-c2ccc(Cl)cc2)nn(-c2cccc(F)c2)c1=O (single isomer, unassigned) [Example 336, (+)-6-(4-chlorophenyl)-2-(3-fluorophenyl)-N-(trans-2-hydroxycyclobutyl)-3-oxo-2,3-dihydropyridazine-4-carboxamide]
> 2e-05 | 1.42e-07 | 7.87e-08 | – | – | O=C(NCC1(O)COC1)c1cc(-c2ccc(Cl)cc2)nn(-c2cccc(F)c2)c1=O [Example 331, 6-(4-chlorophenyl)-2-(3-fluorophenyl)-N-[(3-hydroxyoxetan-3-yl)methyl]-3-oxo-2,3-dihydropyridazine-4-carboxamide]
> 2e-05 | 4.05e-08 | 2.78e-08 | – | – | C[C@H](CO)CNC(=O)c1cc(-c2ccc(C(F)(F)F)cc2)nn(-c2cccc(F)c2)c1=O [Example 246, (−)-2-(3-Fluorophenyl)-N-[(2S)-3-hydroxy-2-methylpropyl]-3-oxo-6-[4-(trifluoromethyl)phenyl]-2,3-dihydropyridazine-4-carboxamide]
> 2e-05 | > 3e-07 | 2.65e-08 | – | – | C[C@@H](CO)NC(=O)c1cc(-c2ccc(N3CCOCC3)cc2)nn(-c2cccc(F)c2)c1=O [Example 374, 2-(3-fluorophenyl)-N-[(2S)-1-hydroxypropan-2-yl]-6-[4-(morpholin-4-yl)phenyl]-3-oxo-2,3-dihydropyridazine-4-carboxamide]
> 2e-05 | 3.21e-08 | 3.27e-08 | – | – | O=C(NC(CO)C1CCC1)c1cc(-c2ccc(Cl)cc2)nn(-c2cccc(F)c2)c1=O (racemic) [Example 209, 6-(4-Chlorophenyl)-N-[(1RS)-1-cyclobutyl-2-hydroxyethyl]-2-(3-fluorophenyl)-3-oxo-2,3-dihydropyridazine-4-carboxamide]
